Legend:
[1] = biological target: T1, MMP-14 (Homo sapiens, UniProt P50281); experiment: MMP activity assay, fluorogenic substrate (MMP Inhibitor Profiling Kit); type: biochemical
T1 construct: the BML- prefix points to Enzo Life Sciences, own knowledge BML-AK308
Protocol: (§1) Determination of MMP activity. A fluorescently labeled substrate probe containing a fluorescent label and a fluorescence quencher, was utilized for this study. […] Enzyme activity was assessed using the MMP Inhibitor Profiling Kit (Product # BML-AK308, New York, NY, USA) according to the manufacturer’s recommendations. The nonspecific inhibitor NNGH was used as a positive control. The fluorescence of the fluorogenic substrate OmniMMP^TM RED was measured at wavelengths Ex/Em = 545/576 nm using a Spark 10M multimode plate reader (Tecan, Zurich, Switzerland). Reaction rates were expressed in relative fluorescence units (RFUs) per minute. The activity of MMPs in the presence of the studied compounds was determined as follows:Activity, % = (Vinh/Vcont) × 100,(1) where V is the initial reaction rate (RFUs/min) in the presence (Vinh) and absence (Vcont) of the studied compounds.
(§2) All tested compounds were dissolved in DMSO. The final concentration of DMSO in all samples was 0.1%. Control samples were treated with 0.1% DMSO.

[2] = biological target: T2, MMP-2 (Homo sapiens, UniProt P08253); experiment: as above; type: biochemical
T2 construct: the BML- prefix points to Enzo Life Sciences, own knowledge BML-AK308
Protocol: as §1, §2

[3] = biological target: T3, MMP-3 (Homo sapiens, UniProt P08254); experiment: as above; type: biochemical
T3 construct: the BML- prefix points to Enzo Life Sciences, own knowledge BML-AK308
Protocol: as §1, §2

[4] = biological target: T4, MMP-9 (Homo sapiens, UniProt P14780); experiment: as above; type: biochemical
T4 construct: the BML- prefix points to Enzo Life Sciences, own knowledge BML-AK308
Protocol: as §1, §2

[5] = test system: U-251 MG; experiment: Cytotoxicity, MTT test; type: cell-based; conditions: Homo sapiens, 72 h of exposure
Protocol: (§3) Cell culture. A-172 (human glioblastoma cells), HepG2 (human hepatocellular carcinoma cells), M-HeLa (human cervical adenocarcinoma cells, M subclone), Vero (African green monkey kidney epithelial cells), and FetMSC (human embryonic mesenchymal stem cells) were purchased from the Russian Collection of Cell Cultures of Vertebrates (Institute of Cytology RAS, St. Petersburg, Russia). The U-251 MG cell line (human glioblastoma-astrocytoma) was purchased from the European Collection of Authenticated Cell Cultures (Salisbury, UK). All cells were grown at 37 °C in an atmosphere of 5% CO2. A-172 and Vero cells were cultured in DMEM medium (PanEco, Moscow, Russia). HepG2, HeLa, and U-251 MG cells were cultured in EMEM medium (PanEco). FetMSC cells were cultured in F12/DMEM medium (PanEco). All incubation media were supplemented with 10% fetal calf serum (BioWest, Nuaillé, France), 50 U/mL penicillin, and […] streptomycin (PanEco). Additionally, media for HeLa, HepG2, and U-251 MG cells were supplemented with 2 mM glutamine (PanEco) and 1% essential amino acids (PanEco), media for A-172 and Vero cells were supplemented with 4 mM glutamine, and the medium for FetMSC cells was supplemented with 3 mM glutamine. The medium for U-251 MG cells was additionally supplemented with 1 mM sodium pyruvate (PanEco).
(§4) Cytotoxicity studies. The cytotoxicity of the compounds was assessed using the MTT test. Cells were seeded into 96-well plates at varying concentrations of 5 × 10^4 cells/mL (A-172, Vero and HeLa), 7 × 10^4 cells/mL (HepG2 and U-251 MG), and 10 × 10^4 cells/mL (FetMSC). The studied compounds were added to the incubation medium 24 h after seeding at concentrations ranging from 7.8 μM to 500 μM. All compounds were dissolved in DMSO and diluted with the incubation medium to their final concentrations just before use. The incubation medium in wells was aspirated and replaced with medium containing the studied compounds. The final concentration of DMSO in all samples was 0.1%. Control samples were treated with 0.1% DMSO. After 72 h of exposure, 3-(4,5-dimethylthiazol-2-yl)-2,5-diphenyl-2H-tetrazolium bromide (MTT) (Dia-M, Moscow, Russia) was added to the incubation medium at a concentration of 0.5 mg/mL. The resulting MTT-formazan crystals were dissolved in DMSO. The optical density was measured at 570 nm with a background wavelength of 620 nm using a Spark 10M plate reader. IC50 values were determined using a median effect analysis from the dose–effect relationships.

[6] = test system: FetMSC; experiment: Cytotoxicity, MTT test; type: cell-based, human
Protocol: as §3, §4

[7] = test system: HeLa; experiment: Cytotoxicity, MTT test; type: cell-based, human; conditions: Homo sapiens, HeLa, 72 h of exposure
Protocol: as §3, §4

[8] = test system: HepG2; experiment: Cytotoxicity, MTT test; type: cell-based, human; conditions: Homo sapiens, HepG2, 72 h of exposure
Protocol: as §3, §4

[9] = test system: Vero; experiment: Cytotoxicity, MTT test; type: cell-based, African green monkey; conditions: Chlorocebus sabaeus, Vero, 72 h of exposure
Protocol: as §3, §4

[10] = Cytotoxicity, MTT test, statements on all cell lines studied; type: cell-based; conditions: human, African green monkey, 72 h of exposure, summary over cell lines, read-out: cytotoxicity IC50, cells in general
Protocol: as §3, §4

[11] = test system: B16 melanoma; experiment: Antitumor activity in vivo, tumor growth; parameters: species or system mouse; conditions: BDF1 mice, i.p., CP 100 mg/kg days 2, 7, cPt 4 mg/kg days 2–9, 4 300 mg/kg days 2–9
Protocol: (§5) Antitumor activity in vivo. The B16 mouse melanoma was used as a tumor model. The B16 melanoma tumor strain was induced in male BDF1 mice by subcutaneous inoculation of 0.2–0.5 mL of a suspension of tumor tissue in medium 199 at intervals of 12–16 days. For the experiments, BDF1 mice were inoculated with 0.3 mL of a suspension of tumor tissue diluted in a 0.9% NaCl solution at a ratio of 1:5 subcutaneously on the right side.
(§6) Compound 4 was dissolved in a 0.9% NaCl solution with 1% DMSO. […] Control animals were injected intraperitoneally with 1% DMSO in saline (0.9% NaCl) in the same volumes as the test compounds.
Tumor growth was monitored on days 0, 6, 8, 10, 13, 15, 17, and 20 by measuring the tumor size with a digital caliper. The mean tumor diameter was calculated using the formula:D = 3√a × b × c,(2) where a, b, and c are mutually perpendicular tumor diameters.

[12] = test system: B16 melanoma; experiment: Antimetastatic activity in vivo, lung metastases; parameters: species or system mouse
Protocol: as §5, §6
And MNMcont. are the mean number of metastases in the experimental and control groups, respectively.

[13] = concentration of 1 μM (Figure 3)
[14] = lungs, B16 melanoma, BDF1 mice, doses as in Table 5

T3 sequence (P08254 100-272 limits assumed): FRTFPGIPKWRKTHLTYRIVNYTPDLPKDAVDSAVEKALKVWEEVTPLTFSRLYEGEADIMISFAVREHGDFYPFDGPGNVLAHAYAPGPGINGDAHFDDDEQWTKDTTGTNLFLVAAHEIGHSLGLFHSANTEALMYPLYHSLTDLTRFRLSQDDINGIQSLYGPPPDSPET
T2 sequence (P08253 110-446 limits assumed): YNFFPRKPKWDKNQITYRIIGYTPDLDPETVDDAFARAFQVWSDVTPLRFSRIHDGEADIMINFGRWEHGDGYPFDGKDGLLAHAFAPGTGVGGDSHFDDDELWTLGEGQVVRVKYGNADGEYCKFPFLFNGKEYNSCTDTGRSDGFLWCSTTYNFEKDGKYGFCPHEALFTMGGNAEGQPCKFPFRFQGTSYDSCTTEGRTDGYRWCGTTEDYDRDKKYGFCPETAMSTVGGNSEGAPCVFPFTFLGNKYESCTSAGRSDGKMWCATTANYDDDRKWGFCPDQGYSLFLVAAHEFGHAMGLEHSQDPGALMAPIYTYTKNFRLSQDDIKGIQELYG
T4 sequence (P14780 107-444 limits assumed): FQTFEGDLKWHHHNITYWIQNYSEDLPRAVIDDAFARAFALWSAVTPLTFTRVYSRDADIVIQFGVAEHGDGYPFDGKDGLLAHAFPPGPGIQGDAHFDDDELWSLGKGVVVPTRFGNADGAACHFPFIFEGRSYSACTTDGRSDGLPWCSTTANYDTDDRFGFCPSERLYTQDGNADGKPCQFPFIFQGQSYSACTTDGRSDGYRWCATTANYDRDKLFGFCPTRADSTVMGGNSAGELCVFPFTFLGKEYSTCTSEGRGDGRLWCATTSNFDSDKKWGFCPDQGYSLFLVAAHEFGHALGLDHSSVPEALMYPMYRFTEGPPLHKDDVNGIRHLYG

`O=C(CCC(=O)Nc1ccc(I)cc1)NO` [Compound 4, N^1-hydroxy-N^4-(4-iodophenyl)butanediamide] showed an inhibition at 1 µM [1, 13] of roughly 50%, an IC50 ([1]; read-out: MMP-inhibiting activity IC50, MMP-14) of 1.49 ± 0.01 µM and an inhibition at 1 µM [2, 13] of roughly 50%. For the same compound, the IC50 ([2]; read-out: MMP-inhibiting activity IC50, MMP-2) was 1.26 ± 0.01 µM, the “effect on MMP-3 activity” value [3, 13] was “no effect” and the “concentration with significant effect on MMP-3 activity” value ([3]; dose–effect relationship (Figure 4)) was “approximately 10 μM”. It also gave an IC50 ([3]; read-out: MMP-inhibiting activity IC50, MMP-3) greater than 10 µM, an inhibition at 1 µM [4, 13] of roughly 50% and an IC50 ([4]; read-out: MMP-inhibiting activity IC50, MMP-9) of 1.06 ± 0.01 µM. For the same compound, the IC50 [5] was 401 ± 21.1 µM, the IC50 ([6]; Homo sapiens, 72 h of exposure, MTT) was greater than 500 µM and the “toxicity to FetMSC cells” value ([6]; only at the highest concentration) was “some toxicity”. The IC50 [7] was 297 ± 15.7 µM, the IC50 [8] was 488 ± 23.9 µM and the IC50 [9] was greater than 500 µM. For the same compound, the IC50 at 72 h [10] was greater than 100 µM, the “Tumor Growth Inhibition, % Day 10” value [11] was 34.5% and the “Tumor Growth Inhibition, % Day 13” value [11] was 61.5%. For the same compound, the “Tumor Growth Inhibition, % Day 15” value [11] was 50.4%, the “Tumor Growth Inhibition, % Day 17” value [11] was 44.6% and the “Tumor Growth Inhibition, % Day 20” value [11] was 42.3%. The “reduction of the number of animals with metastases in the group” value ([12]; 300 mg/kg i.p. days 2–9) was 50%, the “% Inhibition of Metastases” value [12, 14] was 88.6% and the “Mean Number of Metastases per Mouse” value [12, 14] was 1.3 ± 0.9. The “Metastasis Rate, %” value [12, 14] was 50% and the “Number of Animals without Metastases” value ([12]; of 6 animals in the group, lungs, B16 melanoma, BDF1 mice, doses as in Table 5) was 3.
